From ChEMBL document CHEMBL1136171, “Acetylenic TACE inhibitors. Part 1. SAR of the acyclic sulfonamide hydroxamates” (Bioorg Med Chem Lett, 2003)

Experiments:
[1] = Oral bioavailability in dog at 10 mg/kg of the compound; type: ADME, organism-based, Canis lupus familiaris; settings: in vivo
Mus musculus [2] = experiment: Compound was reproducibly active at reducing clinical severity scores expressed as efficacy in mouse p.o.; type: functional
[3] = target: Matrix metalloproteinase-9 (Homo sapiens, UniProt P14780)
Matrix metalloproteinase-9, sequence (P14780 whole entry): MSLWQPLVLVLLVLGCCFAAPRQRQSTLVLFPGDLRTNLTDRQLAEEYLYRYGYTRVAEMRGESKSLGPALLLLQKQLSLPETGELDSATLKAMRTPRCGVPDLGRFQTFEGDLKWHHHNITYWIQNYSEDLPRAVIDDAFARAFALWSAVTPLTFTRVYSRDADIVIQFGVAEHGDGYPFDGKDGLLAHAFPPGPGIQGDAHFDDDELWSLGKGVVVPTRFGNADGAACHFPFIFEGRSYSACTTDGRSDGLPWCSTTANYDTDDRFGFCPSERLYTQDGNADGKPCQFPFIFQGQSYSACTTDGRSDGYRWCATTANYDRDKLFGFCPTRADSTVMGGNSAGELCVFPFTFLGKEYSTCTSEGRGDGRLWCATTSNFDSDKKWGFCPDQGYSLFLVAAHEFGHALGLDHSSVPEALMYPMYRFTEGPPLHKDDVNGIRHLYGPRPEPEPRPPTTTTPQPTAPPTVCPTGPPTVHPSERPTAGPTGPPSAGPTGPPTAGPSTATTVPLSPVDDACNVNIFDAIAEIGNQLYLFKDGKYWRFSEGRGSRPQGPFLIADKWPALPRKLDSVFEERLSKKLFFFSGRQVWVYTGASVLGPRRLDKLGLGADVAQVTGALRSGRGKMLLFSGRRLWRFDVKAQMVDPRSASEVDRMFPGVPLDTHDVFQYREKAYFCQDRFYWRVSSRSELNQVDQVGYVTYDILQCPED
Description: In vitro inhibition of Matrix metalloprotein-9

Mus musculus [4] = species: Mus musculus; experiment: Effective dose in mouse; type: functional
Mus musculus [5] = experiment: Compound was reproducibly active at reducing clinical severity scores in mouse p.o.; type: functional
[6] = Oral bioavailability in mouse at 10 mg/kg of the compound; type: ADME, organism-based; settings: in vivo
THP-1 [7] = experiment: Inhibition of LPS-stimulated production of TNF-alpha, at the dose of 1 uM concentration; type: functional; settings: for inhibition at 1 µM: Homo sapiens, THP-1
Interstitial collagenase = target: T1, Interstitial collagenase (Homo sapiens, UniProt P03956); experiment: In vitro inhibition of Matrix metalloprotein 1
T1 sequence (P03956 whole entry): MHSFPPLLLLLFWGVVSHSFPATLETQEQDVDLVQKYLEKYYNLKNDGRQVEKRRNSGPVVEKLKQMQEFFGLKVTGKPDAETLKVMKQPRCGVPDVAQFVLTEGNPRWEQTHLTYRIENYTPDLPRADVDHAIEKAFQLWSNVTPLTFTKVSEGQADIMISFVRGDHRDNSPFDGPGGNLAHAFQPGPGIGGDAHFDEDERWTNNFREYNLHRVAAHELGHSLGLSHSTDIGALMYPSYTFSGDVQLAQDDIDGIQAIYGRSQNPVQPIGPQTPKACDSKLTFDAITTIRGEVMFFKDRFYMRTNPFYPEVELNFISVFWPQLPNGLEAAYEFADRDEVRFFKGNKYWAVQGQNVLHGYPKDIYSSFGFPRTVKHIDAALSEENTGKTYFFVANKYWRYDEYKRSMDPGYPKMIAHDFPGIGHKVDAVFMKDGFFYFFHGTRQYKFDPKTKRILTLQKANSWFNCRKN

[8] = Oral bioavailability in monkey at 10 mg/kg of the compound; type: ADME, organism-based; settings: cercopithecidae, in vivo
Collagenase 3 = Collagenase 3 (Homo sapiens, UniProt P45452)
Description: In vitro inhibition of Matrix metalloprotein 13

[9] = Oral bioavailability in rat at 10 mg/kg of the compound; type: ADME, organism-based; settings: in vivo
Homo sapiens = species: Homo sapiens; experiment: Inhibitory concentration against LPS-stimulated TNF-alpha production in human whole blood; type: functional
[10] = target: T2, Disintegrin and metalloproteinase domain-containing protein 17 (Homo sapiens, UniProt P78536); experiment: In vitro inhibition of tumor necrosis factor-alpha converting enzyme
T2 sequence (P78536 whole entry, the tested form may be a part): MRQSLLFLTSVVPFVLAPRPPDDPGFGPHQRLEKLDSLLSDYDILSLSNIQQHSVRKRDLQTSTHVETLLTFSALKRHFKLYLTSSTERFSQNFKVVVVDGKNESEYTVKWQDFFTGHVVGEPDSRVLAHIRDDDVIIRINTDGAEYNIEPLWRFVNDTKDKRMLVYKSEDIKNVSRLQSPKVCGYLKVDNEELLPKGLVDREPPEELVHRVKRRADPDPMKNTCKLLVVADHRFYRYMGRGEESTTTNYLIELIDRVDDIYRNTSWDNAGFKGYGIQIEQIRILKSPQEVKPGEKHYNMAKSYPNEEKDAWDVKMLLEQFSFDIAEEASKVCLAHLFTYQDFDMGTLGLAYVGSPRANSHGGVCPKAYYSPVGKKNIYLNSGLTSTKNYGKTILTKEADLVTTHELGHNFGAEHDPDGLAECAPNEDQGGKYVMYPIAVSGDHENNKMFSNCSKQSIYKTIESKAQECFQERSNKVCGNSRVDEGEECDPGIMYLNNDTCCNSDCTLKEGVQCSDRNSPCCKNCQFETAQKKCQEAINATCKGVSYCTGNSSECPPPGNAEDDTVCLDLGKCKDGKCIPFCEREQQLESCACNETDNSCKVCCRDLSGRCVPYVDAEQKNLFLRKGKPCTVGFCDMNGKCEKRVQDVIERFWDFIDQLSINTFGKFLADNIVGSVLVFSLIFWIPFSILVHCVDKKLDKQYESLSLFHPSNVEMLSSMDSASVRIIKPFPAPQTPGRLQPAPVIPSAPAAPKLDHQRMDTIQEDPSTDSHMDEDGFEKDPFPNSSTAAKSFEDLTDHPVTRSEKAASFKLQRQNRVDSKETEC

Mus musculus [11] = experiment: In vivo percent inhibition against LPS-stimulated production of TNF-alpha in a mouse at a dose of 50 mg/Kg p.o.; type: functional; settings: po, read-out: Inhibition
THP-1 [12] = experiment: Inhibition of LPS-stimulated production of TNF-alpha at the dose of 3 uM concentration; type: functional; settings: Homo sapiens
[13] = target: T3, Interstitial collagenase (Homo sapiens) (UniProt P03956); experiment: Inhibition of Matrix metalloprotein 1 at 10 uM
T3 sequence (whole entry): T1 sequence (P03956 whole entry)

[14] = target: T2, Disintegrin and metalloproteinase domain-containing protein 17; experiment: Inhibition of tumor necrosis factor-alpha converting enzyme; settings: concentration not given here

Row | Compound | IC50 [3] | inhibition at 1 µM (THP-1 [7]) | IC50 (Interstitial collagenase) | IC50 (Collagenase 3) | IC50 [10] | also measured
1 | CC#CCOc1ccc(S(=O)(=O)N[C@@H](C(=O)NO)C(C)O)cc1 (stereo not given in full) | 777 nM | 50% | 2470 nM | 86 nM | 10 nM | bioavailability [1]: 75%; Activity (Mus musculus [2]): 20 mg/kg; ED50 (Mus musculus [4]): 3 mg/kg; Activity (Mus musculus [5]): 10 mg/kg; bioavailability [6]: 100%; bioavailability [8]: 17%; bioavailability [9]: 46%; IC50 (Homo sapiens): 1000 nM
2 | CC#CCOc1ccc(S(=O)(=O)N(C)CC(=O)NO)cc1 |  | 22% |  |  | 7 nM | 
3 | CC#CCOc1ccc(S(=O)(=O)N(C)[C@@H](C(=O)NO)c2ccc(OCCNC)cc2)cc1 |  | 87% |  |  |  | inhibition in vivo at 50 mg/kg (Mus musculus [11]): > 75%
4 | CC#CCOc1ccc(S(=O)(=O)N(C)CCC(=O)NO)cc1 |  |  |  |  |  | inhibition at 3 µM (THP-1 [12]): 9%
5 | CC#CCOc1ccc(S(=O)(=O)NC(CSCc2cccnc2)C(=O)NO)cc1 (stereo not given) | 160 nM | 56% | 1910 nM | 28 nM | 3 nM | 
6 | CC#CCOc1ccc(S(=O)(=O)N[C@@H](C(=O)NO)c2ccc(OCCNC)cc2)cc1 |  | 48% | 10000 nM |  |  | 
7 | CC#CCOc1ccc(S(=O)(=O)N(C)[C@H](C)C(=O)NO)cc1 | 68 nM |  | 330 nM | 28 nM | 5 nM | Inhibition (THP-1 [7]): 60%
8 | CC#CCOc1ccc(S(=O)(=O)N(CC(=O)NO)Cc2cccnc2)cc1 |  | 45% |  |  |  | 
9 | CC#CCOc1ccc(S(=O)(=O)N(C)C(CSCc2cccnc2)C(=O)NO)cc1 (stereo not given) |  | 80% |  | 5 nM |  | 
10 | CC#CCOc1ccc(S(=O)(=O)NC(C(=O)NO)C(C)(C)SCc2cccnc2)cc1 (stereo not given) | 130 nM | 49% | 476 nM | 8 nM | 6 nM | 
11 | C#CCNc1ccc(S(=O)(=O)N(C)CC(=O)NO)cc1 |  |  | ~10000 nM |  |  | 
12 | CC#CCOc1ccc(S(=O)(=O)NCC(=O)NO)cc1 |  | 15% |  |  | 5 nM | inhibition [13]: 47%
13 | CC#CCOc1ccc(S(=O)(=O)N(C)[C@@H](C(=O)NO)C(C)C)cc1 |  | 79% | 259 nM | 38 nM | 15 nM | 
14 | CC#CCOc1ccc(S(=O)(=O)NC(C)(C)C(=O)NO)cc1 |  | 9% |  |  |  | 
15 | CC#CCOc1ccc(S(=O)(=O)N[C@H](C)C(=O)NO)cc1 | 796 nM | 40% | 4030 nM | 195 nM | 4 nM | inhibition in vivo at 50 mg/kg (Mus musculus [11]): > 75%
16 | CC#CCOc1ccc(S(=O)(=O)N[C@@H](C(=O)NO)C(C)(C)C)cc1 |  | 78% |  |  |  | inhibition in vivo at 50 mg/kg (Mus musculus [11]): > 75%
17 | CN(CC(=O)NO)S(=O)(=O)c1ccc(CCC#N)cc1 | 74 nM |  | > 10000 nM | 207 nM |  | inhibition at 3 µM (THP-1 [12]): 7%; inhibition [14]: 6%
18 | CC#CCOc1ccc(S(=O)(=O)NCCC(=O)NO)cc1 |  |  |  |  |  | inhibition at 3 µM (THP-1 [12]): 0%
19 | CC#CCOc1ccc(S(=O)(=O)N[C@@H](C(=O)NO)C(C)C)cc1 | 42 nM | 58% | 2960 nM | 18 nM | 10 nM | 
20 | CC#CCOc1ccc(S(=O)(=O)N(C)C(C(=O)NO)C(C)(C)SCc2cccnc2)cc1 (stereo not given) | 4 nM | 52% |  | 2 nM | 54 nM | 
